The source of these data is paper PMC8877061, “Antifungal and Antibiofilm Activity of Cyclic Temporin L Peptide Analogues against Albicans and Non-Albicans Candida Species” (Pharmaceutics, 2022).

The structures appear in SMILES notation. Where “and” joins values, the source holds several entries; their conditions need not be identical. Equal entries are not always repeated. Where two headings read alike, the source gives them in different places. Positions of bridges follow the written chain, without caps; N, C: chain ends. Non-standard residues stand in square brackets, D forms with d. Residues, ends and D or L forms follow the SMILES beside them. Triazole bridges read from a SMILES are 1,4-linked. Lys(N3) = [N-]=[N+]=NCCCC[C@H](N)C(=O)O; Pra = C#CC[C@H](N)C(=O)O

For one series, the system named is C. glabrata DSM 11226. Format: cell-based. On the procedure:
(§1) C. albicans ATCC 90028, C. auris DSM 21092, C. glabrata DSM 11226, C. tropicalis DSM11951 and C. parapsilosis DSM 4874 grown on YPD Agar (1% w/v yeast extract, 2% w/v peptone, 2% w/v glucose, 1.5% Agar) were cultured in Tryptone soya broth supplemented with 0.1% glucose for 16–18 h at 37 °C, washed twice using sterile phosphate-buffered saline (PBS) and standardized to […] as required for the experiments. RPMI1640 medium (Thermo Fisher Scientific, Waltham, MA, USA) buffered to a pH of 7.0 with 0.165 M MOPS was used for growing the biofilms of all Candida species.
(§2) The antifungal activity of peptides against all five Candida species was determined according to CLSI-M27-A3 [33], as reported previously. Briefly, the compounds were tested at concentrations ranging from […] to 50 μM, and the organism suspensions were adjusted to an inoculum of 10^6 cell/mL at OD 590 nm in RPMI 1640, added to the 96-well plate and incubated at 37 °C for 24 h. The minimum inhibitory concentration (MIC) values were determined as the lowest concentration inhibiting fungal growth at 590 nm using a microplate reader (Synergy™ H4; BioTek Instruments, Inc., Winooski, VT, USA). […] The MFC was the lowest concentration that yielded no colony growth on the agar. The MFC/MIC ratio was calculated to determine whether the substance had fungistatic (MFC/MIC ≥ 4) or fungicidal (MFC/MIC < 4) activity.

A further series deals with C. tropicalis DSM 11951. Format: cell-based. On the procedure: as §1, §2
The next series concerns C. auris DSM 21092. Type of series: cell-based. The note with it: DSM 21092, 24 h. The method, then:
as §1, §2

Series [1] in a line: Critical aggregation concentration with Nile red. Format: physicochemical. The note with it: aqueous solution, Nile red 500 nM, 1 h, peptide 1-200 μM, emission maximum fitted with Boltzmann sigmoid, triplicate. On the procedure: The peptide aggregation in the aqueous solution was monitored using Nile red as a dye probe. Nile red has poor solubility in water, and it has a large tendency to move in a hydrophobic environment as aggregates, showing a blue shift. First, the stock solutions of the peptides were prepared by dissolving them in ethanol, and then different aliquots were taken to prepare the peptide solutions at different concentrations (1, 5, 10, 15, 20, 30, 50, 100 and 200 μM). The ethanol was evaporated under a nitrogen gas stream and then dissolved with sterile water (1.5 mL), sonicated for 15 min and freeze-dried. Then, each peptide solution was hydrated with Nile red solution (C = 500 nM) in the dark place for 1 h before measurement. The emission spectra of Nile red were measured between 570 and 700 nm at a slit width of 5 nm using an excitation wavelength of 550 nm and a 10-nm slit width. The data were repeated in triplicate and analyzed by plotting the maximum emission fluorescence corresponding wavelength (y) as a function of the peptide concentration (x) and fitting with the sigmoidal Boltzmann equation: y=A1−A2/1+e^(x−x0/Δx)+A2
In the equation, A1 and A2 indicate the upper and lower limits of the sigmoid, respectively, x0 is the inflection point of the sigmoid and Δx is the parameter which represents the steepness of the function. The sigmoidal plot allows for calculating the CAC value at x0.

The test system of series [2] is S. typhimurium strain TA100. Format: cell-based. The note with it: 12.5 µM, TA100 without S9, 37 °C, 5 days, duplicate; MR ≥2 = mutagenic. On the procedure:
The fluctuation Ames test was performed according to the manufacturer’s protocol provided for the Muta-ChromoPlate Bacterial Strain Kit (EBPI, Canada) and according to OECD Guideline 471 (OECD Guidelines for the Testing of Chemicals, Section 4, Test No. 471: Bacterial Reverse Mutation Test). S. typhimurium strain TA100 was used to assess the bacterial reverse mutation from amino acid (histidine) auxotrophy to prototrophy after exposure to mutagens. The overnight TA100 cultures were exposed to each peptide at a 12.5-µM concentration in the presence of bromocresol purple and then dispensed into 96-well microtiter plates. The plates were incubated at 37 °C for 5 days. After this period, the number of positive colonies was counted and statistically compared with the number of positive colonies in the blank wells to identify the spontaneous mutation rate. The negative control was distilled water, while the positive control was sodium azide for TA100 without S9. All experiments were conducted in duplicate. The results were expressed as the mutagenicity ratio (MR) and were obtained by dividing the number of reverse mutation colonies by the spontaneous mutation rate. When the MR was ≥2, the sample was judged to be mutagenic.

Series [3] is described as follows: ANTS/DPX leakage, eukaryotic membrane-like LUVs. The note with it: peptide 50 μM, Chol/DOPC LUVs 0.1 mM lipid, PBS pH 7.2, 10 min, fluorescence 385/512 nm. On the procedure: ANTS/DPX-entrapped large unilamellar vesicles (LUVs) composed of PE/PC/PI/Ergosterol (5:4:1:2, w/w/w/w) and Chol/DOPC (70:30, ratio in moles) were prepared by the extrusion method as previously described in [28]. First, the lipid films were prepared by dissolving lipids in the proper ratio in chloroform to have a final concentration of 0.1 mM and then dried under a nitrogen gas stream. The probes of ANTS (12.5 mM) and DPX (45 mM) dissolved in water were added to the lipid films, and the mixture was freeze-dried overnight. The lipid films with encapsulated ANTS and DPX were hydrated with a PBS 1× buffer (pH = 7.2), vortexed for 1 h, freeze-thawed 6 times and extruded 10 times through 0.1-μm pore size polycarbonate filters to obtain the LUVs. The LUVs with entrapped ANTS and DPX were separated from the free ANTS and DPX by gel filtration chromatography on a Sephadex G-50 column (1.5 × 10 cm). The assay was based on the measurement of dequenching of ANTS by DPX when the LUVs were incubated with peptide concentrations of 5, 10, 15, 20, 30 and 50 μM. The increase in ANT fluorescence was recorded at an excitation fluorescence at 385 nm (slit width: 5 nm) and a fluorescence emission at 512 nm (slit width: 5 nm) for 10 min after the addition of the peptide. The destruction of all LUVs and the complete release of ANTs were obtained after treatment with 10% Triton-X. The percentage of liposome leakage was calculated as %leakage = (Fi − F0)/(Ft − F0), where F0 represents the fluorescence of the intact LUVs before the addition of the peptide and Fi and Ft are the intensities of the fluorescence achieved after peptide and Triton-X treatment, respectively.

The mark [4] stands for this setting: CLSI-M27-A3, RPMI 1640, 10^6 cell/mL, 37 °C, 24 h, read at 590 nm.

In the case of `CC(C)C[C@H](NC(=O)[C@@H]1CCCCn2cc(nn2)C[C@H](NC(=O)[C@H](CCCCN)NC(=O)[C@H](CO)NC(=O)[C@H](Cc2ccccc2)NC(=O)[C@H](Cc2c[nH]c3ccccc23)NC(=O)[C@@H]2CCCN2C(=O)[C@@H](NC(=O)[C@@H](N)Cc2ccccc2)C(C)C)C(=O)N[C@H](CC(C)C)C(=O)NCC(=O)N[C@@H](CCCNC(=N)N)C(=O)N1)C(N)=O` [compound 7] (H-FVPWFSK[Pra][dL]GR[Lys(N3)]L-NH2; triazole 8-12; N-terminus assumed), in the series with C. glabrata DSM 11226 (DSM 11226, 24 h), the “MFC, C. glabrata DSM 11226” value was 50 µM and the “MIC, C. glabrata DSM 11226” value was 50 µM. In addition, in the series with C. tropicalis DSM 11951 (DSM 11951, 24 h), the “MFC, C. tropicalis DSM 11951” value is on record as 50 µM and the “MIC, C. tropicalis DSM 11951” value is 50 µM. Besides, in the series on C. auris DSM 21092, the “MFC, C. auris DSM 21092” value is reported as greater than 50 µM and the “MIC, C. auris DSM 21092” value is 50 µM. Moreover, the “critical aggregation concentration (CAC)” value in series [1] stood at 45.4 ± 0.8 µM. Further, the “mutagenicity ratio (MR)” value in series [2] is reported as less than 2. Besides, the “liposome leakage (ANTS release), eukaryotic membrane-like LUVs” value (“liposome leakage (ANTS release)” below) in series [3] was ~ 28%.
As to `CC[C@H](C)[C@H](NC(=O)[C@H](CCCNC(=N)N)NC(=O)[C@@H]1CCCCNC(=O)CC[C@H](NC(=O)[C@H](Cc2ccccc2)NC(=O)[C@H](Cc2c[nH]c3ccccc23)NC(=O)[C@@H]2CCCN2C(=O)[C@@H](NC(=O)[C@@H](N)Cc2ccccc2)C(C)C)C(=O)N[C@@H](CCCCN)C(=O)N[C@@H](Cc2ccccc2)C(=O)N[C@H](CC(C)C)C(=O)N1)C(=O)N[C@@H](CC(C)C)C(N)=O` [compound 15] (H-FVPWFEKF[dL]KRIL-NH2; lactam 6-10; N-terminus assumed), in the series with C. glabrata DSM 11226 (DSM 11226, 24 h), the “MFC, C. glabrata DSM 11226” value is reported as greater than 50 µM and the “MIC, C. glabrata DSM 11226” value amounted to 50 µM. In addition, in the series with C. tropicalis DSM 11951 (DSM 11951, 24 h), the “MFC, C. tropicalis DSM 11951” value is listed as greater than 50 µM and the “MIC, C. tropicalis DSM 11951” value was 50 µM. Besides, in the series on C. auris DSM 21092, the “MFC, C. auris DSM 21092” value is reported as greater than 50 µM and the “MIC, C. auris DSM 21092” value is on record as 50 µM. For the same molecule, in series [1], the “critical aggregation concentration (CAC)” value is 17 µM and 17.8 ± 0.9 µM. Besides, the “mutagenicity ratio (MR)” value in series [2] is less than 2.
Consider `CC[C@H](C)[C@H](NC(=O)[C@H](CCCNC(=N)N)NC(=O)[C@@H]1CSSC[C@H](NC(=O)[C@H](Cc2ccccc2)NC(=O)[C@H](Cc2c[nH]c3ccccc23)NC(=O)[C@@H]2CCCN2C(=O)[C@@H](NC(=O)[C@@H](N)Cc2ccccc2)C(C)C)C(=O)N[C@@H](CCCCN)C(=O)N[C@@H](Cc2ccccc2)C(=O)N[C@H](CC(C)C)C(=O)N1)C(=O)N[C@@H](CC(C)C)C(N)=O` [compound 16] (H-FVPWFCKF[dL]CRIL-NH2; disulfide 6-10; N-terminus assumed), for which, in the series with C. glabrata DSM 11226 (setting [4]), the “MIC, C. glabrata DSM 11226” value is 25 µM. Besides, in the series on C. glabrata DSM 11226 (DSM 11226, 24 h), the “MFC, C. glabrata DSM 11226” value worked out at 50 µM. The “MIC, C. tropicalis DSM 11951” value in the series with C. tropicalis DSM 11951 (setting [4]) worked out at 25 µM. Besides, the “MFC, C. tropicalis DSM 11951” value in the series on C. tropicalis DSM 11951 (DSM 11951, 24 h) was determined as 50 µM. Also, in the series with C. auris DSM 21092, the “MFC, C. auris DSM 21092” value is given as greater than 50 µM and the “MIC, C. auris DSM 21092” value is listed as 50 µM. Moreover, the “critical aggregation concentration (CAC)” value in series [1] amounted to 42.9 ± 0.7 µM. Further, the “mutagenicity ratio (MR)” value in series [2] was less than 2. The “liposome leakage (ANTS release)” value in series [3] is listed as ~ 28%.
Consider `CC[C@H](C)[C@H](NC(=O)[C@H](CCCNC(=N)N)NC(=O)[C@@H]1CCC(=O)NCCCC[C@H](NC(=O)[C@H](Cc2ccccc2)NC(=O)[C@H](Cc2c[nH]c3ccccc23)NC(=O)[C@@H]2CCCN2C(=O)[C@@H](NC(=O)[C@@H](N)Cc2ccccc2)C(C)C)C(=O)N[C@@H](CCCCN)C(=O)N[C@@H](Cc2ccccc2)C(=O)N[C@H](CC(C)C)C(=O)N1)C(=O)N[C@@H](CC(C)C)C(N)=O` [compound 3] (H-FVPWFKKF[dL]ERIL-NH2; lactam 6-10; N-terminus assumed), for which, in the series with C. glabrata DSM 11226 (DSM 11226, 24 h), the “MFC, C. glabrata DSM 11226” value is 50 µM and the “MIC, C. glabrata DSM 11226” value was found to be 50 µM. Moreover, in the series with C. tropicalis DSM 11951 (DSM 11951, 24 h), the “MFC, C. tropicalis DSM 11951” value worked out at 50 µM and the “MIC, C. tropicalis DSM 11951” value turned out to be 50 µM. Also, in the series on C. auris DSM 21092, the “MFC, C. auris DSM 21092” value amounted to 50 µM and the “MIC, C. auris DSM 21092” value was found to be 50 µM. Besides, the “critical aggregation concentration (CAC)” value in series [1] came to 17.3 ± 0.9 µM. Also, in series [2], the “mutagenicity ratio (MR)” value is less than 2. Also, the “liposome leakage (ANTS release)” value in series [3] is ~ 28%.
